PMC7554048, “FBI-1 enhanced the resistance of triple-negative breast cancer cells to chemotherapeutic agents via the miR-30c/PXR axis” (Cell Death & Disease, 2020)
Where two headings read alike, the source gives them in different places.

Experiments:
[1] = Olaparib sustained in cultured TNBC cells, LC-MS/MS (half-life); assay type: in vitro ADME, human; conditions: human
Description: (§1) TNBC cells transfected with plasmids were used for the pharmacokinetic experiments to examine the amount of olaparib sustained in the cells. For the cell-based experiments, cells were treated with 1 μmol/L concentration of olaparib for 12 h[33]. Then, cells were harvested at indicated time-points. For the animal experiments, TNBC cells were injected into the subcutaneous position to form subcutaneous tumor tissues. After 2–3 weeks’ growth, when the tumor volumes reached 1500–2000 mm^3, the solution of olaparib was injected into the subcutaneous tumors. Then, the tumor tissues were harvested at indicated times[34],[35]. The olaparib in cells or tumor tissues was extracted by acetonitrile (ACN), and the amount of olaparib sustained in cells or tumor tissues at each time point was determined by liquid chromatography–mass spectrometry/mass spectrometry (LC-MS/MS), following the methods established by Krens et al.[36]. The sustaining rates of olaparib were calculated as (the amount of olaparib at each time)/(the amount of olaparib at 0-time) × 100%. The sustaining curves or the half-time life (t1/2) of olaparib was obtained by the sustained rates of olaparib.

[2] = Olaparib sustained in subcutaneous TNBC tumors after intratumoral injection, LC-MS/MS (half-life); assay type: in vivo, nude mice; conditions: nude, mouse, subcutaneous tumor tissue, other: injected into the subcutaneous tumors (intratumoral), read-out: Half life values of olaparib (t1/2) In subcutaneous tumors (converted)
Description: as §1

HCC-1937 = assay: Cell-survival SRB assay; assay type: cell-based; conditions: Homo sapiens, HCC1937, 48 h, read-out: The IC50 values of olaparib
Description: (§2) The TNBC cells were treated with the indicated concentration of agents (10, 3, 1, 0.3, 0.1, 0.03, or 0.01 μmol/L for olaparib) for 48 h. Then, cells were analyzed by the Sulforhodamine B (SRB) assay, following the methods provided by and Li et al.[23] and Guan et al.[24]. The relative survival cells were determined by the O.D. values (optical density values) at 510 nm. […] The IC50 values of agents were calculated from the inhibition rates[23],[24]. The colony formation experiments were performed following the method desicripted by Fang et al.[5]. TNBC cells were transfected with the plasmids and treated with solvent control or the olaparib. The cells were analyzed by the colony-formation.

MDA-MB-436 = assay: Cell-survival SRB assay; assay type: cell-based; conditions: Homo sapiens, MDA-MB-436, 48 h, read-out: The IC50 values of olaparib
Description: as §2

PDC No. 2 = assay: Cell-survival SRB assay; assay type: cell-based; conditions: Homo sapiens, 48 h, read-out: IC50 values of olparib
Description: as §2

PDC No. 3 = assay: Cell-survival SRB assay; assay type: cell-based; conditions: Homo sapiens, 48 h, read-out: IC50 values of olparib
Description: as §2

PDC No. 6 = assay: Cell-survival SRB assay; assay type: cell-based; conditions: Homo sapiens, 48 h, read-out: IC50 values of olparib
Description: as §2

PDC No. 7 = assay: Cell-survival SRB assay; assay type: cell-based; conditions: Homo sapiens, 48 h, read-out: IC50 values of olparib
Description: as §2

PDC No. 9 = assay: Cell-survival SRB assay; assay type: cell-based; conditions: Homo sapiens, 48 h, read-out: IC50 values of olparib
Description: as §2

TNBC PDC No. 3 = assay: In vivo antitumor effect of olaparib on subcutaneous TNBC tumors; conditions: nude mice, oral administration once every two days, 4–5 weeks
Description: Female nude mice, 4–6 weeks old, were purchased from Beijing Si-Bei-Fu Corporation, China. The animal experiments were approved by the Institutional Animal Care and Use Committee of the Chinese PLA General Hospital, China. All animal experiments (n = 10 for each group; animals were randomly divided into the groups) were performed according to the UK Animals (Scientific Procedures) Act, 1986, and associated guidelines. TNBC cells transfected with plasmids were treated with olaparib via oral administration once every two days. After 4–5 weeks’ treatment, the tumor tissues of the mice were harvested. The tumor volumes or tumor weights were determined following the methods described by Jia et al.[37]. The inhibition rates of olaparib were calculated by the tumor volumes or tumor weights.

half-life at 1 μmol/L ([1]; HCC-1937, FBI-1 + miR-30c, read-out: half life values of olaparib (t1/2) (converted)): 3440 ± 535 min | half-life at 1 μmol/L ([1]; HCC-1937 TNBC cells, HCC-1937, FBI-1, read-out: half life values of olaparib (t1/2) (converted)): 566 ± 34.2 min | half-life at 1 μmol/L ([1]; HCC-1937 TNBC cells, HCC-1937, control, read-out: half life values of olaparib (t1/2) (converted)): 1870 ± 280 min | half-life at 1 μmol/L ([1]; HCC-1937 TNBC cells, HCC-1937, miR-30c + PXR^Mut, read-out: half life values of olaparib (t1/2) (converted)): 513 ± 18 min | half-life at 1 μmol/L ([1]; HCC-1937 TNBC cells, HCC-1937, miR-30c, read-out: half life values of olaparib (t1/2) (converted)): 4100 ± 806 min | half-life at 1 μmol/L ([1]; HCC-1937 TNBC cells, HCC-1937, siFBI-1 + miR-30c inhibitor, read-out: half life values of olaparib (t1/2) (converted)): 1110 ± 245 min | half-life at 1 μmol/L ([1]; HCC-1937 TNBC cells, HCC-1937, siFBI-1, read-out: half life values of olaparib (t1/2) (converted)): 3010 ± 337 min | half-life at 1 μmol/L ([1]; MDA-MB-436, FBI-1 + miR-30c, read-out: half life values of olaparib (t1/2) (converted)): 2650 ± 345 min | half-life at 1 μmol/L ([1]; MDA-MB-436 TNBC cells, MDA-MB-436, FBI-1, read-out: half life values of olaparib (t1/2) (converted)): 802 ± 165 min | half-life at 1 μmol/L ([1]; MDA-MB-436 TNBC cells, MDA-MB-436, control, read-out: half life values of olaparib (t1/2) (converted)): 1730 ± 259 min | half-life at 1 μmol/L ([1]; MDA-MB-436 TNBC cells, MDA-MB-436, miR-30c + PXR^Mut, read-out: half life values of olaparib (t1/2) (converted)): 669 ± 260 min | half-life at 1 μmol/L ([1]; MDA-MB-436 TNBC cells, MDA-MB-436, miR-30c, read-out: half life values of olaparib (t1/2) (converted)): 3080 ± 428 min | half-life at 1 μmol/L ([1]; MDA-MB-436 TNBC cells, MDA-MB-436, siFBI-1 + miR-30c inhibitor, read-out: half life values of olaparib (t1/2) (converted)): 1220 ± 329 min | half-life at 1 μmol/L ([1]; MDA-MB-436 TNBC cells, MDA-MB-436, siFBI-1, read-out: half life values of olaparib (t1/2) (converted)): 2840 ± 445 min | half-life at 1 μmol/L ([1]; TNBC cells PDC No. 2, PDC No. 2, Control, read-out: Half life values of olaparib (t1/2) In cultured cells (converted)): 1300 ± 413 min | half-life at 1 μmol/L ([1]; TNBC cells PDC No. 2, PDC No. 2, siFBI-1, read-out: Half life values of olaparib (t1/2) In cultured cells (converted)): 3650 ± 291 min | half-life at 1 μmol/L ([1]; TNBC cells PDC No. 3, PDC No. 3, Control (Table 3), read-out: Half life values of olaparib (t1/2) In cultured cells (converted)): 1500 ± 469 min | half-life at 1 μmol/L ([1]; TNBC cells PDC No. 3, PDC No. 3, Control (Table 4), read-out: Half-life values of olparib (t1/2) (converted)): 1640 ± 258 min | half-life at 1 μmol/L ([1]; TNBC cells PDC No. 3, PDC No. 3, FBI-1 (Table 3), read-out: Half life values of olaparib (t1/2) In cultured cells (converted)): 699 ± 233 min | half-life at 1 μmol/L ([1]; TNBC cells PDC No. 3, PDC No. 3, FBI-1 (Table 4), read-out: Half-life values of olparib (t1/2) (converted)): 636 ± 272 min | half-life at 1 μmol/L ([1]; TNBC cells PDC No. 3, PDC No. 3, siFBI-1, read-out: Half life values of olaparib (t1/2) In cultured cells (converted)): 3560 ± 535 min | half-life at 1 μmol/L ([1]; TNBC cells PDC No. 3, with ketoconazole (concentration not stated), PDC No. 3, FBI-1 + ketoconazole, read-out: Half-life values of olparib (t1/2) (converted)): 1570 ± 231 min | half-life at 1 μmol/L ([1]; TNBC cells PDC No. 6, PDC No. 6, Control, read-out: Half life values of olaparib (t1/2) In cultured cells (converted)): 1170 ± 350 min | half-life at 1 μmol/L ([1]; TNBC cells PDC No. 6, PDC No. 6, siFBI-1, read-out: Half life values of olaparib (t1/2) In cultured cells (converted)): 3080 ± 691 min | half-life at 1 μmol/L ([1]; TNBC cells PDC No. 7, PDC No. 7, Control, read-out: Half life values of olaparib (t1/2) In cultured cells (converted)): 1260 ± 301 min | half-life at 1 μmol/L ([1]; TNBC cells PDC No. 7, PDC No. 7, siFBI-1, read-out: Half life values of olaparib (t1/2) In cultured cells (converted)): 3330 ± 598 min | half-life at 1 μmol/L ([1]; TNBC cells PDC No. 9, PDC No. 9, Control (Table 3), read-out: Half life values of olaparib (t1/2) In cultured cells (converted)): 2020 ± 330 min | half-life at 1 μmol/L ([1]; TNBC cells PDC No. 9, PDC No. 9, Control (Table 4), read-out: Half-life values of olparib (t1/2) (converted)): 2180 ± 398 min | half-life at 1 μmol/L ([1]; TNBC cells PDC No. 9, PDC No. 9, FBI-1 (Table 3), read-out: Half life values of olaparib (t1/2) In cultured cells (converted)): 1090 ± 266 min | half-life at 1 μmol/L ([1]; TNBC cells PDC No. 9, PDC No. 9, FBI-1 (Table 4), read-out: Half-life values of olparib (t1/2) (converted)): 892 ± 173 min | half-life at 1 μmol/L ([1]; TNBC cells PDC No. 9, with ketoconazole (concentration not stated), PDC No. 9, FBI-1 + ketoconazole, read-out: Half-life values of olparib (t1/2) (converted)): 2260 ± 333 min | half-life ([2]; PDC No. 2, Control): 1810 ± 409 min | half-life ([2]; PDC No. 2, siFBI-1): 3220 ± 440 min | half-life ([2]; PDC No. 3, Control): 1930 ± 553 min | half-life ([2]; PDC No. 3, FBI-1): 1070 ± 519 min | half-life ([2]; PDC No. 3, siFBI-1): 3760 ± 406 min | half-life ([2]; PDC No. 6, Control): 1720 ± 590 min | half-life ([2]; PDC No. 6, siFBI-1): 2620 ± 463 min | half-life ([2]; PDC No. 7, Control): 1880 ± 597 min | half-life ([2]; PDC No. 7, siFBI-1): 3500 ± 544 min | half-life ([2]; PDC No. 9, Control): 2160 ± 500 min | half-life ([2]; PDC No. 9, FBI-1): 1360 ± 262 min
SMILES: O=C(c1cc(Cc2n[nH]c(=O)c3ccccc23)ccc1F)N1CCN(C(=O)C2CC2)CC1 [olaparib]
IC50 (HCC-1937; HCC-1937, FBI-1 + miR-30c, 48 h): 240 ± 40 nM | IC50 (HCC-1937; HCC-1937, FBI-1, 48 h): 3700 ± 380 nM | IC50 (HCC-1937; HCC-1937, control, 48 h): 900 ± 330 nM | IC50 (HCC-1937; HCC-1937, miR-30c + PXR^Mut, 48 h): 4900 ± 820 nM | IC50 (HCC-1937; HCC-1937, miR-30c, 48 h): 100 ± 50 nM | IC50 (HCC-1937; HCC-1937, siFBI-1 + miR-30c inhibitor, 48 h): 2210 ± 510 nM | IC50 (HCC-1937; HCC-1937, siFBI-1, 48 h): 130 ± 80 nM | IC50 (MDA-MB-436; MDA-MB-436, FBI-1 + miR-30c, 48 h): 210 ± 20 nM | IC50 (MDA-MB-436; MDA-MB-436, FBI-1, 48 h): 2460 ± 790 nM | IC50 (MDA-MB-436; MDA-MB-436, control, 48 h): 790 ± 280 nM | IC50 (MDA-MB-436; MDA-MB-436, miR-30c + PXR^Mut, 48 h): 2750 ± 400 nM | IC50 (MDA-MB-436; MDA-MB-436, miR-30c, 48 h): 100 ± 30 nM | IC50 (MDA-MB-436; MDA-MB-436, siFBI-1 + miR-30c inhibitor, 48 h): 1820 ± 310 nM | IC50 (MDA-MB-436; MDA-MB-436, siFBI-1, 48 h): 140 ± 10 nM | IC50 (PDC No. 2; PDC No. 2, control): 1320 ± 250 nM | IC50 (PDC No. 2; PDC No. 2, siFBI-1, 48 h): 220 ± 20 nM | IC50 (PDC No. 3; PDC No. 3, FBI-1, 48 h): 8750 ± 1000 nM | IC50 (PDC No. 3; PDC No. 3, control): 940 ± 100 nM | IC50 (PDC No. 3; PDC No. 3, ketoconazole + FBI-1, 48 h): 630 ± 110 nM | IC50 (PDC No. 3; PDC No. 3, siFBI-1, 48 h): 100 ± 50 nM | IC50 (PDC No. 6; PDC No. 6, control): 1740 ± 820 nM | IC50 (PDC No. 6; PDC No. 6, siFBI-1, 48 h): 250 ± 40 nM | IC50 (PDC No. 7; PDC No. 7, control): 2040 ± 770 nM | IC50 (PDC No. 7; PDC No. 7, siFBI-1, 48 h): 330 ± 100 nM | IC50 (PDC No. 9; PDC No. 9, FBI-1, 48 h): 9880 ± 650 nM | IC50 (PDC No. 9; PDC No. 9, control): 850 ± 330 nM | IC50 (PDC No. 9; PDC No. 9, ketoconazole + FBI-1, 48 h): 1640 ± 520 nM | subcutaneous growth of TNBC cells (TNBC PDC No. 3): inhibited the subcutaneous growth of TNBC cells
